Measured values: patent publication US12479818B2, “Treatment of fibrosis with IRE1 small molecule inhibitors” (Cornell University, priority 2019, dated 2025)

target: IRE1a (Homo sapiens, UniProt O75460); assay: IRE1a Endoribonuclease Nanoluciferase Assay (XBP1 luciferase reporter in 293T cells); assay type: cell-based; parameters: endogenous in cells; host or cells: 293T; conditions: XBP1 nanoluciferase reporter in 293T cells, ER stressor; tested as the salt named
Procedure: Compounds disclosed herein were assessed for disruption of IRE1 signaling using a IRE1a Endoribonuclease Nanoluciferase Assay. […] About 24 hours later, the cells were transfected with Effectene. In a 15 mL tube, the following was added: 2 ug XBP1 luciferase reporter plasmid (PGK-Luc2-P2A-XBP1u-Nanoluciferase-PEST); 300 ul EC buffer; and 16 ul Enhancer, followed by incubation at room temp for 5 minutes. […] 2.6 mL cDMEM media was added. Old media was aspirated from the cells, followed by addition of 7 mL fresh media. Full transfection mixture was added dropwise to cells. Cells were incubated for 6 hours, followed by trypsinization, centrifugation and resuspension in 11 mL fresh cDMEM media. 100 μL of cells were plated per a well in a 96 well plate. A day later, ER stressors of choice +/− inhibitors were added. To harvest, media was aspirated from cells completely, then 50 uL 1× passive lysis buffer (Promega: E1941) was added per well and put on shaker (300 rpm) for 30 minutes at room temperature. […] 15 uL OneGlo (nanoluciferase kit, Promega N1630) was added. Plates were spun down, placed on shaker (300 rpm) for 10 minutes. Plates were read on luminometer, 1000 ms integration time per well. 15 uL Stop and Glo (nanoluciferase kit) was added. Plates were spun down, placed on shaker (300 rpm) for 10 minutes. Plates were read on luminometer, 1000 ms second integration time per well.

Sequence of IRE1a (O75460 19-977): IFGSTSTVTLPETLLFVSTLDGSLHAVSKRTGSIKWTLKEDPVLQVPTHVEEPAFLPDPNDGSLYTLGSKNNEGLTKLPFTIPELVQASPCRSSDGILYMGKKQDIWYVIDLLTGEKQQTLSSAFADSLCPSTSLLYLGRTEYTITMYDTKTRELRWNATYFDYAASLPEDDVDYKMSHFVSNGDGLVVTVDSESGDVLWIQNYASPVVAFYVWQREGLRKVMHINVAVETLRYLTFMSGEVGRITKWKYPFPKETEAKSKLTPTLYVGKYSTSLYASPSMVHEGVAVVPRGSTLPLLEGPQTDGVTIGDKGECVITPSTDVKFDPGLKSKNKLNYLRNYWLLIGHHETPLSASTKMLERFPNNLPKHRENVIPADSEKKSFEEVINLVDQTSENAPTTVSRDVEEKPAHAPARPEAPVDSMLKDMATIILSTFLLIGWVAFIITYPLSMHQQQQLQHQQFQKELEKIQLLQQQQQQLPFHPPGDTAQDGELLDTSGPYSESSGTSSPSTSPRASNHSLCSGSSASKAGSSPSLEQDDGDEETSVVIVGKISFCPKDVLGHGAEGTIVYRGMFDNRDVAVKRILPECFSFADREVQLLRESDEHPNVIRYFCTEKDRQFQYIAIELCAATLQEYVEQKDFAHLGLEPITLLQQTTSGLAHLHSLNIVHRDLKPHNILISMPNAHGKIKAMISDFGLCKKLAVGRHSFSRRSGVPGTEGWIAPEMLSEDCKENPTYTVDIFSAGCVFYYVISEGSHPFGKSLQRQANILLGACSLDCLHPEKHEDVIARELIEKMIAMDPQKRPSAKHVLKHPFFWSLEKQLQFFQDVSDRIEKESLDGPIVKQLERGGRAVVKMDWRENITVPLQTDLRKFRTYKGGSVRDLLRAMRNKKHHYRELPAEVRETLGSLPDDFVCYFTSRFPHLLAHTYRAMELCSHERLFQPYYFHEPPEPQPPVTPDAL

Row | Structure (SMILES) | EC50
1 | N[C@H]1CC[C@H](Nc2ncc3cc(-c4ccc(NS(=O)(=O)c5ccccc5Cl)cc4)ccc3n2)CC1 [Compound 26, N-(4-(2-(((lr,4r) 4-aminocyclohexyl)amino)quinazolin-6-yl)phenyl)-2-chlorobenzene-sulfonamide] | < 5 nM
2 | CCc1cc(NS(=O)(=O)c2ccccc2Cl)ccc1-c1cc(CC)c2nc(N[C@H]3CC[C@H](N)CC3)ncc2c1 [Compound 34, N-(4-(2-(((1r,4r)-4-aminocyclohexyl)amino)-8-ethylquinazolin-6-yl)-3-ethylphenyl)-2-chlorobenzene-sulfonamide] | 5 to 50 nM
3 | CCc1cc(-c2cnc(NS(=O)(=O)c3ccccc3Cl)nc2OC)cc2cnc(N[C@H]3CC[C@H](N)CC3)nc12 [Compound 46, N-(5-(2-(((1r,4r)-4-aminocyclohexyl)amino)-8-ethylquinazolin-6-yl)-4-methoxypyrimidin-2-yl)-2-chlorobenzene-sulfonamide] | < 5 nM
4 | N[C@H]1CC[C@H](Nc2ncc3cc(-c4ccc(NS(=O)(=O)c5ccccc5Cl)cc4F)ccc3n2)CC1 [Compound 48, N-(4-(2-(((1r,4r)-4-aminocyclohexyl)amino)quinazolin-6-yl)-3-fluorophenyl)-2-chlorobenzene-sulfonamide] | 5 to 50 nM
5 | N[C@H]1CC[C@H](Nc2ncc3cc(-c4ncc(NS(=O)(=O)c5ccccc5Cl)cc4F)ccc3n2)CC1 [Compound 51, N-(6-(2-(((1r,4r)-4-aminocyclohexyl)amino)quinazolin-6-yl)-5-fluoropyridin-3-yl)-2-chlorobenzene-sulfonamide] | 50 to 100 nM
6 | N[C@H]1CC[C@H](Nc2ncc3cc(-c4cc(F)c(NS(=O)(=O)c5ccccc5Cl)cc4F)ccc3n2)CC1 [Compound 53, N-(4-(2-(((1r,4r)-4-aminocyclohexyl)amino)quinazolin-6-yl)-2,5-difluorophenyl)-2-chlorobenzene-sulfonamide] | < 5 nM
7 | N[C@H]1CC[C@H](Nc2ncc3cc(-c4cnc(NS(=O)(=O)c5ccccc5Cl)c(F)c4)ccc3n2)CC1 [Compound 54, N-(5-(2-(((1r,4r)-4-aminocyclohexyl)amino)quinazolin-6-yl)-3-fluoropyridin-2-yl)-2-chlorobenzene-sulfonamide] | 5 to 50 nM
8 | N[C@H]1CC[C@H](Nc2ncc3cc(-c4ccc(NS(=O)(=O)c5ccccc5Cl)c(F)c4F)ccc3n2)CC1 [Compound 56, N-(4-(2-(((1r,4r)-4-aminocyclohexyl)amino)quinazolin-6-yl)-2,3-difluorophenyl)-2-chlorobenzene-sulfonamide] | < 5 nM
9 | N[C@H]1CC[C@H](Nc2cc3ccc(-c4ccc(NS(=O)(=O)c5ccccc5Cl)c(F)c4)cc3cn2)CC1 [Compound 57, N-(4-(3-(((1r,4r)-4-aminocyclohexyl)amino)isoquinolin-7-yl)-2-fluorophenyl)-2-chlorobenzene-sulfonamide] | < 5 nM
10 | CCc1cc(-c2ccc(NS(=O)(=O)c3ccccc3Cl)c(F)c2)cc2cnc(N[C@H]3CC[C@H](NC(C)=O)CC3)nc12 [Compound 59, N-((1r,4)-4-((6-(4-((2-chlorophenyl)sulfonamido)-3-fluorophenyl)-8-ethylquinazolin-2-yl)amino)cyclohexyl) acetamide] | 50 to 100 nM
11 | CCc1cc(-c2ccc(NS(=O)(=O)c3ccccc3Cl)c(F)c2)cc2cnc(N[C@H]3CC[C@H](NC)CC3)nc12 [Compound 60, 2-chloro-N-(4-(8-ethyl-2-(((1r,4)-4-(methylamino)cyclohexyl)amino)quinazolin-6-yl)-2-fluorophenyl) benzene-sulfonamide] | < 5 nM

Continued, values first:

Row | EC50 | Structure (SMILES)
12 | < 5 nM | CCc1cc(-c2cnc(NS(=O)(=O)c3ccccc3Cl)nc2C)cc2cnc(N[C@H]3CC[C@H](N)CC3)nc12 [Compound 23, N-(5-(2-(((1r,4r)-, 4-aminocyelohexyl)amino)-8-ethylquinazolin-6-yl)-4-methylpyrimidin-2-yl)-2-ehlorobenzene-sulfonamide]
13 | < 5 nM | CCc1cc(-c2ccc(NS(=O)(=O)c3ccccc3Cl)c(F)c2)cc2cnc(N[C@H]3CC[C@H](N)CC3)nc12 [Compound 24, N-(4-(2-(((1r,4r)-4-aminocyclohexyl)amino)-8-ethylquinazolin-6-yl)-2-fluorophenyl)-2-chlorobenzene-sulfonamide]
14 | < 5 nM | CCc1cc(-c2ccc(NS(=O)(=O)c3ccccc3Cl)nc2)cc2cnc(N[C@H]3CC[C@H](N)CC3)nc12 [Compound 27, N-(5-(2-(((lr,4r)-4-aminocyclohexyl)amino)-8-ethylquinazolin-6-yl)pyridin-2-yl)-2-chlorobenzene-sulfonamide]
15 | < 5 nM | CCc1cc(-c2ccc(NS(=O)(=O)c3ccccc3Cl)cn2)cc2cnc(N[C@H]3CC[C@H](N)CC3)nc12 [Compound 28, N-(6-(2-(((1r,4r)-4-aminocyclohexyl)amino)-8-ethylquinazolin-6-yl)pyridin-3-yl)-2-chlorobenzene-sulfonamide]
16 | 100 to 10000 nM | CCc1cc(-c2cc(NS(=O)(=O)c3ccccc3Cl)n[nH]2)cc2cnc(N[C@H]3CC[C@H](N)CC3)nc12 [Compound 29, N-(5-(2-(((lr,4r)-4-aminocyclohexyl)amino)-8-ethylquinazolin-6-yl)-1H-pyrazol-3-yl)-2-chlorobenzene-sulfonamide]
17 | < 5 nM | CCc1cc(-c2ccc(NS(=O)(=O)c3ccccc3Cl)nn2)cc2cnc(N[C@H]3CC[C@H](N)CC3)nc12 [Compound 32]
18 | < 5 nM | CCc1cc(-c2ncc(NS(=O)(=O)c3ccccc3Cl)cn2)cc2cnc(N[C@H]3CC[C@H](N)CC3)nc12 [Compound 33, N-(2-(2-(((1r,4r)-4-aminocyclohexyl)amino)-8-ethylquinazolin-6-yl)pyrimidin-5-yl)-2-chlorobenzene-sulfonamide]
19 | < 5 nM | CCc1cc(-c2ccc(NS(=O)(=O)c3ccccc3Cl)cc2F)cc2cnc(N[C@H]3CC[C@H](N)CC3)nc12 [Compound 35, N-(4-(2-(((lr,4r)-4-aminocyclohexyl)amino)-8-ethylquinazolin-6-yl)-3-f1uorophenyl)-2-chlorobenzene-sulfonamide]
20 | < 5 nM | CCc1cc(-c2cc(NS(=O)(=O)c3ccccc3Cl)no2)cc2cnc(N[C@H]3CC[C@H](N)CC3)nc12 [Compound 44, N-(5-(2-(((1r,4r)-4-aminocyclohexyl)amino)-8-ethylquinazolin 6-yl)isoxazol-3-yl)-2-chlorobenzene-sulfonamide]
21 | 5 to 50 nM | CCCc1cc(-c2cc(NS(=O)(=O)c3ccccc3Cl)nn2C)cc2cnc(N[C@H]3CC[C@H](N)CC3)nc12 [Compound 47, N-(5-(2-(((1r,4r)-4-aminocyclohexyl)amino)-8-propylquinazolin-6-yl)-1-methyl-1H-pyrazol-3-yl)-2-chlorobenzene-sulfonamide]
22 | < 5 nM | CCc1cc(-c2ncc(NS(=O)(=O)c3ccccc3Cl)cc2F)cc2cnc(N[C@H]3CC[C@H](N)CC3)nc12 [Compound 52, N-(6-(2-(((1r,4r)-4-aminocyclohexyl)amino)-8-ethylquinazolin-6-yl)-5-fluoropyridin-3-yl)-2-chlorobenzene-sulfonamide]
23 | < 5 nM | CCc1cc(-c2cnc(NS(=O)(=O)c3ccccc3Cl)c(F)c2)cc2cnc(N[C@H]3CC[C@H](N)CC3)nc12 [Compound 55, N-(5-(2-(((1r,4r)-4-aminocyclohexyl)amino)-8-ethylquinazolin-6-yl)-3-fluoropyridin-2-yl)-2-chlorobenzene-sulfonamide]
